Assay results published in US20080090834A1, “SELECTIVE AZOLE PDE10A INHIBITOR COMPOUNDS” (Pfizer Inc, priority 2006, published 2008).
Where a name gives a salt, the structure may show the parent alone.

Biological target: T1, cloned rat PDE10A full-length enzyme (Rattus norvegicus, UniProt Q9QYJ6)
T1 construct: cloned rat PDE10A full-length enzyme grown in transfected Sf9 insect cells; made in house; host or cells: Sf9 insect cells
T1 sequence (Q9QYJ6 1-794): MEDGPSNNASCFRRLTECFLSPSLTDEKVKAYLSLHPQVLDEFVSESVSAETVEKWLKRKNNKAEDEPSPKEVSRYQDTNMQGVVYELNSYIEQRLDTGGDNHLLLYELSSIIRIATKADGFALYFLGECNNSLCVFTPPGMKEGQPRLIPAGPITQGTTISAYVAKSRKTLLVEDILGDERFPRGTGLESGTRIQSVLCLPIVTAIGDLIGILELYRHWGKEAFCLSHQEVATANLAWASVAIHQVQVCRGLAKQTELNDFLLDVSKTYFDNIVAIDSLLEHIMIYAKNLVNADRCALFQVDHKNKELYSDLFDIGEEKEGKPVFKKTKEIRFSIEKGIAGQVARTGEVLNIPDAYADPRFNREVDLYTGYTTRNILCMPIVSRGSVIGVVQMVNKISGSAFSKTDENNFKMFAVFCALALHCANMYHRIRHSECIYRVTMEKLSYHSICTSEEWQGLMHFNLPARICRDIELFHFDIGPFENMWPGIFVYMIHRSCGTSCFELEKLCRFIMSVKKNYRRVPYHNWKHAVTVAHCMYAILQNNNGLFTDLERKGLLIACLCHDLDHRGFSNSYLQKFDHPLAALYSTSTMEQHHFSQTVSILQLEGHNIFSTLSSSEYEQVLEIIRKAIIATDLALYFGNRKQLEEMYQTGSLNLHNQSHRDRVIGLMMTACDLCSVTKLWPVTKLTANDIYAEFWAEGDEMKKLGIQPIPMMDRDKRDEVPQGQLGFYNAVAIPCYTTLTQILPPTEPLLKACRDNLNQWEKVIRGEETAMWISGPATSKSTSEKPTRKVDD
Experiment: PDE10 enzyme inhibition, [3H]cAMP scintillation proximity assay
Type: biochemical
Conditions: rat PDE10A from Sf9 cells, 20 nM [3H]cAMP, SPA beads, 20 minute incubation at room temperature
Procedure: Compounds of the present invention were evaluated for ability to inhibit PDE10 enzyme with the following Assay procedure
The enzyme used in the procedure was cloned rat PDE10A full-length enzyme grown in transfected Sf9 insect cells. Cloned enzyme was extracted from homogenized cell pellets and stored frozen in homogenizing buffer until use. Compounds were initially dissolved in 100% DMSO and diluted out in 20 percent DMSO/water solution. Final concentration of DMSO in the assay was 2 percent as compounds were tested in triplicate in 96 well plates. Compound solution was placed in well, then tritiated cyclic AMP (New England Nuclear NET275) in assay buffer was added at 20 nM concentration. Then PDE10 enzyme in assay buffer of 50 mM Tris, 8.3 mM MgCl2, pH 7.5 at room temperature was added for a final assay volume of 100 ul. Concentration of enzyme was added such that less than 10 percent of [3H]cAMP at 20 nM was converted to detectable end product, [3H]AMP bound to SPA (Scintillation Proximity Assay) beads. Phosphodiesterase scintillation proximity yttrium silicate beads from Amersham Biosciences (RPNQ0150) were added (50 ul at 20 mg/ml) after a 20 minute incubation at room temperature. Zinc sulphate as a component of the beads stops the phosphodiesterase reaction.
Non-specific binding to SPA beads was determined by addition of 1 uM papaverine. Total conversion by enzyme without inhibitor of [3H]cAMP to [3H]AMP, as detected by scintillation of [3H]AMP bound to yttrium silicate beads, was determined in the presence of vehicle-only.

Question: Which IC50 does the source give for `Cc1ccc(-n2cc(-c3ccccn3)nc2-c2ccc(-n3ccc4ncccc43)cc2)cn1` [Example 52, 1-(4-(1-(6-methylpyridin-3-yl)-4-(pyridin-2-yl)-1H-imidazol-2-yl)phenyl)-1H-pyrrolo[3,2-b]pyridine] here?
Answer: 9.32 nM

Question: How did the IC50 turn out when `Cc1ccc(-n2cc(-c3ccccn3)nc2-c2ccc(-n3cc(C)c4nccnc43)cc2)cn1` [Example 75] was run?
Answer: 2.41 nM

Question: Which IC50 does the source give for `c1cnc2c(c1)ccn2-c1ccc(-c2nc(-c3nccs3)cn2-c2nccs2)cc1` [Example 3, 1-(4-(1,4-di(thiazol-2-yl)-1H-imidazol-2-yl)phenyl)-1H-pyrrolo[2,3-b)pyridine] here?
Answer: 1610 nM

Question: `COc1ccc(-n2cc(-c3nccs3)nc2-c2ccc(-n3ccc4cccnc43)cc2)cn1` [Example 29, 1-(4-(1-(6-methoxypyridin-3-yl)-4-(thiazol-2-yl)-1H-imidazol-2-yl)phenyl)-1H-pyrrolo[2,3-b]pyridine] was tested. Which IC50 did it give?
Answer: 0.383 nM

Question: How did the IC50 turn out when `Cc1ccc(-n2cc(-c3ccccn3)nc2-c2ccc(-n3ccc4cccnc43)cc2)cn1` [Example 6, 1-(4-(1-(6-methylpyridine-3-yl)-4-(pyridin-2-yl)-1H-imidazol-2-yl)phenyl)-1H-pyrrolo[2,3-b]pyridine] was run?
Answer: 3.21 nM

Question: For `c1ccc(-c2nc(-c3cccnc3)n(-c3ccc(-n4ccc5cccnc54)cc3)n2)nc1` [Example 115, 1-(4-(3-(pyridin-2-yl)-5-(pyridine-3-yl)-1H-1,2,4-triazol-1-yl)phenyl)-1H-pyrrolo[2,3-b]pyridine], which IC50 is on record?
Answer: 17.9 nM

Question: `Cn1ccnc1-c1cn(-c2cncnc2)c(-c2ccc(-n3ccc4cccnc43)cc2)n1` [Example 67] was tested. Which IC50 did it give?
Answer: 274 nM

Question: Which IC50 does the source give for `c1cnc2c(c1)ccn2-c1ccc(-c2nc(-c3nccs3)cn2-c2cncnc2)cc1` [Example 26, 1-(4-(1-(pyrimidin-5-yl)-4-(thiazol-2-yl)-1H-imidazol-2-yl)phenyl)-1H-pyrrolo[2,3-b]pyridine] here?
Answer: 4.4 nM

Question: Which IC50 does the source give for `Cc1ccc(-n2cc(-c3cccc[n+]3[O-])nc2-c2ccc(-n3ccc4cccnc43)cc2)cn1` [Example 16, 1-(4-(1-(6-methylpyridin-3-yl)-4-(1-oxido-pyridin-2-yl)-1H-imidazol-2-yl)phenyl)-1H-pyrrolo[2,3-b]pyridine] here?
Answer: 12.3 nM

Question: `c1ccc(-c2cn(-c3cccnc3)c(-c3ccc(-n4ccnc4)cc3)n2)nc1` [Example 44, 3-(2-(4-(1H-imidazol-1-yl)phenyl)-4-(pyridin-2-yl)-1H-imidazol-1-yl)pyridine] was tested. Which IC50 did it give?
Answer: 522 nM

Question: Which IC50 does the source give for `Cc1cnc2c(ccn2-c2ccc(-c3nc(-c4ccccn4)cn3-c3ccc(C)nc3)cc2)c1` [Example 22, 5-methyl-1-(4-(1-[6-methylpyridin-3-yl)-4-(pyridin-2-yl)-1H-imidazol-2-yl)phenyl)-1H-pyrrolo[2,3-b]pyridine] here?
Answer: 12.1 nM

Question: `COc1nc2cccnc2n1-c1ccc(-c2nc(-c3cscn3)cn2-c2ccc(C)nc2)cc1` [Example 96, 2-methoxy-3-(4-(1-(6-methylpyridin-3-yl)-4-(thiazol-4-yl)-1H-imidazol-2-yl)phenyl)-3H-imidazo[4,5-b]pyridine] was tested. Which IC50 did it give?
Answer: 0.695 nM

Question: With `N#Cc1cccc2c1ccn2-c1ccc(-c2nc(-c3ccccn3)cn2-c2cccnc2)cc1` [Example 40, 1-(4-(4-(pyridin-2-yl)-1-(pyridin-3-yl)-1H-imidazol-2-yl)phenyl)-1H-indole-4-carbonitrile bis-TFA salt] as the compound, how does the IC50 read?
Answer: 65.4 nM

Question: Which IC50 does the source give for `c1ccc(-c2nc(-c3cccnc3)c(-c3ccc(-n4ccc5cccnc54)cc3)[nH]2)nc1` [Example 114, 1-(4-(2-(pyridin-2-yl)-4-(pyridin-3-yl)-1H-imidazol-5-yl)phenyl)-1H-pyrrolo[2,3-b]pyridine] here?
Answer: 18.6 nM

Question: Which IC50 does the source give for `COc1nc2cccnc2n1-c1ccc(-c2nc(-c3cccs3)cn2-c2ccc(C)nc2)cc1` [Example 93, 2-methoxy-3-(4-(1-(6-methylpyridin-3-yl)-4-(thiophen-2-yl)-1H-imidazol-2-yl)phenyl)-3H-imidazo[4,5-b]pyridine] here?
Answer: < 0.424 nM

Question: Which IC50 does the source give for `COc1nc2cccnc2n1-c1ccc(-c2nc(-c3cncs3)cn2-c2ccc(C)nc2)cc1` [Example 116] here?
Answer: 0.305 nM

Question: With `c1csc(-c2nc(-c3ccc(-n4ccc5cccnc54)cc3)c(-c3cnccn3)[nH]2)c1` [Example 105] as the compound, how does the IC50 read?
Answer: 9.21 nM

Question: For `COc1ccc(-n2cc(-c3cccs3)nc2-c2ccc(-n3ccc4cccnc43)cc2)cc1` [Example 1], which IC50 is on record?
Answer: 3.35 nM

Question: `Cc1ccc(-n2cc(-c3ccccn3)nc2-c2ccc(-n3ccc4nccnc43)cc2)cn1` [Example 50, 5-(4-(1-(6-methylpyridin-3-yl)-4-(pyridin-2-yl)-1H-imidazol-2-yl)phenyl)-5H-pyrrolo[3,2-b]pyrazine] was tested. Which IC50 did it give?
Answer: < 3.47 nM

Question: `c1ccc(-c2cn(-c3ccc(-n4ccnc4)nc3)c(-c3ccc(-n4ccc5cccnc54)cc3)n2)nc1` [Example 8, 1-(4-(1-(6-(1H-imidazol-1-yl)pyridin-3-yl)-4-(pyridin-2-yl)-1H-imidazol-2-yl)phenyl)-1-H-pyrrolo[2,3-b]pyridine] was tested. Which IC50 did it give?
Answer: 1.48 nM

Question: For `Cc1ccc(-n2cc(-c3ccc(F)s3)nc2-c2ccc(-n3ccc4cccnc43)cc2)cn1` [Example 64, 1-(4-(4-(5-fluorothiophen-2-yl)-1-(6-methylpyridin-3-yl)-1H-imidazol-2-yl)phenyl)-1H-pyrrolo[2,3-b]pyridine], which IC50 is on record?
Answer: 6.59 nM

Question: Which IC50 does the source give for `Cc1ccc(-n2cc(-c3ccccn3)nc2-c2ccc(-n3c(C(C)C)nc4cccnc43)cc2)cn1` [Example 59, 2-isopropyl-3-(4-(1-(6-methylpyridin-3-yl)-4-(pyridin-2-yl)-1H-imidazol-2-yl)phenyl)-3H-imidazo[4,5-b]pyridine] here?
Answer: 0.831 nM

Question: How did the IC50 turn out when `c1ccc(-c2cn(-c3cncnc3)c(-c3ccc(-c4cccnc4)cc3)n2)nc1` [Example 72] was run?
Answer: 160 nM

Question: `COc1ccc(-c2[nH]c(-c3cccs3)nc2-c2ccc(-n3ccc4cc(OC)ccc43)cc2)cc1` [Example 102, 5-methoxy-1-(4-(5-(4-methoxyphenyl)-2-(thiophen-2-yl)-1H-imidazol-4-yl)phenyl)-1H-indole] was tested. Which IC50 did it give?
Answer: 15.8 nM

Question: `Cc1ccc(-n2cc(-c3ccccn3)nc2-c2ccc(-n3cnc4cncnc43)cc2)cn1` [Example 55, 9-(4-(1-(6-methylpyridin-3-yl)-4-(pyridin-2-yl)-1H-imidazol-2-yl)phenyl-9H-purine and 7-(4-(1-(6-methylpyridin-3-yl)-4-pyridin-2-yl)-1H-imidazol-2-yl))phenyl)-7H-purine] was tested. Which IC50 did it give?
Answer: 10.2 nM

Question: How did the IC50 turn out when `Cc1ccc(-n2cc(-c3ccccn3)nc2-c2ccc(-n3ncc4ccncc43)cc2)cn1` [Example 56, 1-(4-(1-(6-methylpyridin-3-yl)-4-(pyridin-2-yl)-1H-imidazol-2-yl)phenyl)-1H-pyrazolo[3,4-]pyridine] was run?
Answer: 6.44 nM

Question: `Cc1cc(-n2cc(-c3cccnc3)nc2-c2ccc(-n3ccc4cccnc43)cc2)ccn1` [Example 68, 1-(4-(1-(2-methylpyridin-4-yl)-4-(pyridin-3-yl)-1H-imidazol-2-yl)phenyl)-1H-pyrrolo[2,3-b]pyridine bis-TFA salt] was tested. Which IC50 did it give?
Answer: 5.1 nM

Question: `Cc1ccc(-n2cc(-c3ccccn3)nc2-c2ccc(-n3cnc4ncccc43)cc2)cn1` (single isomer, unassigned) [Example 48] was tested. Which IC50 did it give?
Answer: 63.7 nM

Question: For `c1cncc(-n2cc(-c3nc4ccccc4s3)nc2-c2ccc(-n3ccc4cccnc43)cc2)c1` [Example 76, 1-(4-(4-benzo[d]thiazol-2-yl)-1-(pyridin-3-yl)-1H-b]pyridine], which IC50 is on record?
Answer: 544 nM

Question: How did the IC50 turn out when `C#Cc1cc(C)cnc1N` [Example 22A, 3-ethynyl-5-methylpyridin-2-amine] was run?
Answer: 3.35 nM

Question: With `Cc1ccc(-n2cc(-c3ccccn3)nc2-c2ccc(-n3ccc4cc(Cl)cnc43)cc2)cn1` [Example 20, 5-chloro-1-(4-(4-pyridin-2-yl)-1-(6-methylpyridin-3-yl-1H-imidazol-2-yl)phenyl)-1H-pyrrolo[2,3-b]pyridine] as the compound, how does the IC50 read?
Answer: < 2.72 nM

Question: With `c1ccc(-c2cn(-c3cccnc3)c(-c3ccc(-n4ccc5ccccc54)cc3)n2)nc1` [Example 36, 1-(4-(4-(pyridin-2-yl)-1-(pyridin-3-yl)-1H-imidazol-2-yl)phenyl)-1H-indole] as the compound, how does the IC50 read?
Answer: 281 nM
